The test system of assay [1] is PDL-1. Nature of the assay: PDL-1 protein in M21 melanoma cells on immobilized XL313 epitope (Western blot). The assay is classed as cell-based, human. The following applies: 15 minute incubation; vs uncoated wells; FIG. 15. The protocol: Integrin αvβ3 expressing melanoma cells (M21) were seeded on control uncoated wells or wells immobilized with the XL313 cryptic collagen epitope (RGDKGE (SEQ ID NO: 1)). Following a 15 minute incubation cell lysates were prepared. The relative levels of PDL-1 or loading control β-actin were assessed by Western blot.
Integrin αvβ3 expressing melanoma cells (M21) were seeded onto control uncoated wells or wells immobilized with the XL313 cryptic collagen epitope (RGDKGE (SEQ ID NO: 1)) (FIG. 15). Following an incubation period, cell lysates were prepared and relative levels of PDL-1 were assessed.

Assay [2] concerns PDL-1. Put plainly: PDL-1 protein in cells attached to denatured collagen-IV (Western blot). The assay is classed as cell-based. As to conditions: M21, CCL-49, HUVEC; vs native collagen-IV; FIG. 14. As for the experimental part: FIG. 14A and FIG. 14B are blots of integrin αvβ3 expressing melanoma cells (M21 and […]) and FIG. 14C is a blot depicting that endothelial cells (HUVEC) were allowed to attach to well coated with either a non-αvβ3 binding ligand (native collagen-IV) or an αvβ3 binding ligand (denatured collagen-IV). Whole cell lysates were prepared and the relative levels of PDL-1 or loading control β-actin were assessed by Western blot.
Integrin αvβ3 expressing melanoma cells M21 (FIG. 14A) and CCL-49 (FIG. 14B) and endothelial cells (HUVEC) (FIG. 14C) were attached to wells coated with either a non-αvβ3 binding ligand (native collagen-IV) or an αvβ3 binding ligand (denatured collagen-IV). Whole cell lysates were prepared and the relative levels of PDL-1 or β-actin loading control were assessed.

On to “RGDKGE (immobilized on wells) [XL313 epitope]”, for which the “levels of PDL-1 protein in M21 melanoma cells following binding” value in assay [1] is listed as “enhanced levels of PDL-1 protein”.

For the substance “denatured collagen-IV: αvβ3 binding ECM ligand coated on wells”, in assay [2], the “levels of PDL-1 protein in melanoma and endothelial cells following binding” value is given as “enhanced levels of PDL-1 protein”.

The values are drawn from patent US10906977B2, “Enhancing the therapeutic activity of immune checkpoint inhibitor” (Maine Medical Center Research Institute, priority 2016, dated 2021).
